SMILES strings stand for the structures.

By IC50 is commonly meant the concentration that inhibits the measured activity by half.

This experiment deals with P. falciparum 3D7 growth, pLDH absorbance. Description: P. falciparum 3D7 growth inhibition, dose response, strain 3D7 (AID 2305).

In turn, `Cc1cccc(NC(=O)N(Cc2cc3cc(C)cc(C)c3[nH]c2=O)C2CC2)c1` gave an IC50 of 340 nM. Consider `Cc1ccc2c(NN=Cc3ccccc3[N+](=O)[O-])cc(C)nc2c1`, for which the IC50 was 420 nM. As to `COc1ccc2nccc([C@@H](O)CN3CCC(NCc4cc5oc(=O)[nH]c5cc4Cl)CC3)c2c1`, the IC50 turned out to be 380 nM. In turn, `C[C@@H]([C@@H](CCCCc1ccccc1)C(=O)N[C@H](C(=O)Nc1cccnc1)C(C)(C)C)N(O)C=O` returned an IC50 of 930 nM.

`CC1CCC(C(C)C)C(OC(=O)CSc2nnc3c(n2)[nH]c2ccccc23)C1` (centres undefined) registered an IC50 of 930 nM. The result for `O=C(/C=C/c1ccc(CNCCN2CCOCC2)cc1)NCCc1ccccc1` reads 860 nM; that for `Cc1nc2ccccc2c(=O)n1NCc1ccc(Cl)c(Cl)c1`, 150 nM; that for `COc1ccc(C(F)(F)F)cc1N1CCN(CCCCNC(=O)c2ccc(NC(=O)c3ccc(Cl)cc3)cc2)CC1`, 910 nM. The value for `O=c1ccc2ccc(O)c(O)c2o1` was 30 nM; that for `O=C(Nc1ccc(Cn2ncc(N3CCCNCC3)c(Cl)c2=O)cc1)Nc1cc(Cl)cc(Cl)c1` was 870 nM. The molecule `CC(C)c1ccc(NS(=O)(=O)c2cccc(C(=O)NC3CCN(CC4CCCCC4)CC3)c2)cc1` returned an IC50 of 1300 nM. Molecule `COc1ccc(C=C2SC(=O)NC2=Nc2ccccc2)c(OC)c1` came in with an IC50 of 470 nM. As for `Cc1nc(N=C(N)N)nc2ccc(C(C)(C)C)cc12`, the half-inhibitory concentration (IC50) is 750 nM. `CCCNC(=O)c1cncc(-c2ccc(CNC(CC)c3ccccc3)cc2)c1` (centres undefined) yielded an IC50 of 880 nM.

With `COc1cccc(C(O)CNc2ccnc(Nc3ccc(Cl)cc3)n2)c1` (centres undefined), the IC50 was determined as 610 nM. In the case of `O=C(Cn1c(CCc2cccc(F)c2F)nc(=O)c2ccccc21)N(Cc1ccc(-c2ccc(C(F)(F)F)cc2)cc1)C1CCN(C2CCOCC2)CC1`, the IC50 was 740 nM.

As to `Cc1cc(CN2CCC(N3CC(c4ccccc4)(c4ccccc4)OC3=O)C2)ccc1O` (centres undefined), the IC50 amounted to 780 nM.

In the case of `Cc1cc(-c2ccc(CN3Cc4ccccc4C3)cc2)ccc1S(=O)(=O)NCCN1CCCC1`, the IC50 stood at 970 nM. Take `Oc1ccc(CCNc2nc(NCc3ccccc3-c3ccc(F)cc3)nc(N3CCNCC3)n2)cc1`: the IC50 came out at 1070 nM. For `FC(F)(F)c1cnc(Sc2nnc(-c3ccncc3)o2)c(Cl)c1`, the IC50 is 270 nM. The result for `COc1cc2nc(N3CCC(CCCC4CCNCC4)CC3)nc(NCc3ccccn3)c2cc1OC` reads 760 nM; that for `CN(C)c1cccc(CCNCCc2c[nH]c3ccc(Cl)cc23)c1`, 440 nM. The result for `O=C(Cc1ccc(-c2ccccc2)cc1)N[C@H]1CCN(Cc2ccc(OCCCN3CCCCC3)cc2)C1` reads 770 nM; that for `Nc1nc(N)c2c(ccc3c2ccn3Cc2ccc(-c3ccccc3)cc2)n1`, 50 nM. For `Cc1ccoc1C(=O)Nc1ccc(-c2cccc(-c3nc4c(C)cccc4[nH]3)c2)cc1`, the IC50 was found to be 730 nM. The result for `CS(=O)(=O)c1cccc(-c2cnc3[nH]cc(-c4cccc(CCN)c4)c3c2)c1` reads 1560 nM; that for `CC(C)(CNC(=O)/C=C/c1ccc(C(F)(F)F)cc1)CNc1cc(=O)c2ccccc2[nH]1`, 910 nM; that for `CC(=O)Nc1cccc(Nc2nccc(-c3c(-c4cccc(NC(=O)c5c(F)cccc5F)c4)nn4ncccc34)n2)c1`, 180 nM. Regarding `COc1ccc(CNC2CCN(C)CC2)cc1-c1ccc(S(=O)(=O)NCc2ccccc2)s1`, the IC50 was found to be 230 nM. Consider `CN(C)CCCN(C)c1cccc2c1nc(-c1cccnc1)n2CCNCc1ccccc1`, for which the IC50 is 1390 nM. `Nc1cccc(CNCc2ccc(-c3ccc(-c4nc5ccc(F)cc5[nH]4)s3)cc2)c1` yielded an IC50 of 990 nM.

Molecule `O=C(Nc1cccc(-c2ccc(-c3nc4ccc(F)cc4[nH]3)cc2)c1)Nc1ccc(F)c(F)c1F` gave an IC50 of 110 nM. With `CCCCCCCCCn1c(NCc2cc(Cl)ccc2O)nc2ccccc21`, the IC50 was determined as 830 nM.

`CN(C)CC(O)C(c1ccccc1)c1cccc(Br)c1` (centres undefined): the IC50 was 160 nM. The result for `O=C(Nc1ccccc1)NC1CCN(CCC2(c3ccc(Cl)c(Cl)c3)COCN(C(=O)c3ccccc3)C2)C1` (centres undefined) reads 880 nM; that for `Cc1cccc2[nH]c(-c3cccc(-c4ccc(NC(=O)c5ccncc5)cc4)c3)nc12`, 500 nM; that for `Fc1ccc2nc(-c3cccc(-c4cccc(CN5CCN(c6cnccn6)CC5)c4)c3)[nH]c2c1`, 1060 nM. The value for `Cc1ccc(-n2c(Cc3cccc4ccccc34)nnc2SCCC#N)c(C)c1` was 460 nM; that for `Cc1cc(N)nc2ccc(CNCCc3ccccc3Br)cc12` was 120 nM; that for `O=C(Nc1ccc(CCN2CCC(c3nc(COCC(F)(F)F)c(-c4ccccc4)o3)CC2)cc1)c1ccc(F)cc1` was 1970 nM. `CC(C)CCNCc1ccc(OCc2cccc(C(=O)Nc3ccccc3)c2)c(I)c1` yielded an IC50 of 290 nM. Consider `COc1ccc(-c2cccc(NC(=O)c3cccc(Cl)c3)c2)cc1CN1CCCN(C)CC1`, for which the IC50 worked out at 230 nM.

Molecule `CC(C)(C)C(=O)Nc1ccc(N2CCN(C(c3ccccc3)c3ccccc3)CC2)c(Cl)c1` had an IC50 of 660 nM.

`Cc1cccc2[nH]c(-c3cccc(-c4cccc(C(=O)NCCc5cn(C)cn5)c4)c3)nc12` showed an IC50 of 590 nM.

Consider `CC(C)C(C(=O)n1cc2c(ccc3nc(N)nc(N)c32)n1)C(C)C`, for which the IC50 worked out at 790 nM. As for `Nc1ncc(-c2ccccc2)cc1/C=C/c1cccnc1`, the IC50 worked out at 1120 nM. With `COc1ccc(NC(=O)[C@H](CC(C)C)Nc2cc(C)nc(NCCOc3ccccc3)n2)cc1`, the IC50 was determined as 800 nM. On to `CCCN(C(=O)c1ccccc1C)c1nnc(-c2cccc(C)c2)s1`, for which the IC50 stood at 900 nM.

Molecule `O=C(Nc1ccc(-c2ccccc2)cc1)Nc1cccc(OCCN2CCCC2)c1` returned a concentration for half-maximal inhibition (IC50) of 930 nM.

Regarding `Fc1ccccc1COc1ccc(Nc2ncnc3ccc(-c4nnc(C(F)(F)F)o4)cc23)cc1Cl`, the IC50 was 730 nM.

In the case of `CC1CN=C(c2ccc(NC(=O)Nc3ccc(C4=NCC(C)N4)cc3)cc2)N1` (centres undefined), the IC50 worked out at 380 nM. Molecule `O=C(Nc1ccc(Cl)cc1Cl)NC1CCN(CCCCCNC(=O)[C@@H]2C[C@H]2c2ccc(Cl)c(Cl)c2)CC1` gave an IC50 of 370 nM. `O=C(Nc1ccccc1F)NC1CCN(c2ccnc(Nc3ccc(F)cc3)n2)CC1`: the IC50 stood at 750 nM. The result for `Clc1ncnc2scc(-c3ccc(Br)cc3)c12` reads 890 nM; that for `O=C(NCCOc1ccccc1)[C@H](Cc1ccccc1)Nc1ccnc(NCC2CCCCC2)n1`, 1200 nM; that for `CC(=O)Nc1ncc(C(=O)Nc2ccc(-c3cccc(-c4nc5ccc(C(F)(F)F)cc5[nH]4)c3)cc2)s1`, 260 nM. The result for `COc1cc(NCCCNC(=O)c2cn(Cc3ccccc3)c3ccccc23)nc2ccccc12` reads 870 nM.

As for `O=C(Nc1ccc2c(c1)CN(Cc1ccc(N3CCCC3)o1)CCC2)c1cncs1`, the IC50 came to 1570 nM. As to `CCN1CCN(c2cc(C)c3cc(NC(=O)c4cccc(Cl)c4)ccc3n2)CC1`, the IC50 stood at 770 nM. The value for `CCCCCCN1CCCN(Cc2ccc(C(=O)Nc3ccc(C(C)C)cc3)cc2)CC1` was 830 nM. In the case of `NOCCCCOc1ccc(Cl)cc1`, the 50% inhibitory concentration (IC50) was found to be 780 nM. The value for `CN(C)CCNCc1ccc(-c2cccc(-c3nc4ccccc4[nH]3)c2)cc1` was 720 nM; that for `CNCc1cccc(-c2ccc3ccnc(N)c3c2)c1` was 90 nM; that for `COc1ccc(-c2cccc(CNCc3ccc(F)cc3)c2)cc1S(=O)(=O)NCCN1CCCC1` was 1850 nM. Consider `Cc1ccc(Cn2ncc(N3CCNCC3)c(Cl)c2=O)cc1NC(=O)Nc1ccc(-c2ccccc2)cc1`, for which the IC50 came to 1120 nM. Turning to `CCOC(=O)Cn1ccc2c(NCc3ccccc3)nc(C)nc21`, the IC50 stood at 370 nM. Turning to `COc1ccc(O)c(C(=O)c2cc(C(=O)NC3CCCCC3)c(=O)n(C3CCCCC3)c2)c1`, the IC50 came out at 660 nM. The result for `Cc1nc(N=C(N)N)nc2cc3c(cc12)CCC3` reads 920 nM; that for `COc1ccc2nccc([C@@H](O)CN3CCC(NCc4ccc(OC)c(NC(C)=O)c4)CC3)c2c1`, 840 nM. The value for `CN(C)CCCOc1ccc(CN2CCC(c3c[nH]c4ccc(NCC5CCCCC5)cc34)CC2)cc1` was 680 nM; that for `CC(C)S(=O)(=O)N1CCN(Cc2ccc3c(c2)nc(NC(=O)c2ccsc2)n3C[C@H](O)c2ccccc2)CC1` was 270 nM; that for `COc1ccc2nc(-c3cc(-c4ccc(NC(=O)CN5CCOCC5)cc4)cnc3N)[nH]c2c1` was 620 nM.

On to `CC(=O)Nc1cc(C(=O)Nc2ccc(C3=NCCN3)cc2)ccc1C(=O)Nc1ccc(C2=NCCN2)cc1`, for which the IC50 was 130 nM. As to `Cc1ccccc1OCCCc1c(C)nc(N)nc1N`, the IC50 came to 280 nM. Molecule `CC(C)(CNCc1ccc(F)c(F)c1)c1nc(-c2ccc(Cl)c(O)c2)c(-c2ccncc2)[nH]1` showed a half-inhibitory concentration (IC50) of 660 nM. Regarding `COc1cc2c(cc1OC)C(C(=O)Nc1ccc(C(F)(F)F)cc1)C(c1cccs1)N(C)C2=O` (centres undefined), the IC50 is 160 nM. `O=C(NC(c1ccc(Cl)cc1)c1ccc2cccnc2c1O)c1ccccc1` (centres undefined): the IC50 worked out at 560 nM.

`CCOc1ccc(C(=O)Nc2cc(Br)c3c(c2)CNCC3)cc1C#N` displayed an IC50 of 760 nM.

The molecule `O=C(Nc1cccc(CN2CCN(C(=O)c3cccc(Cl)c3)CC2)c1)c1ccco1` came in with an IC50 of 440 nM. Regarding `NC(N)=NN=CC(=O)Nc1ccc(Cl)cc1`, the IC50 came to 810 nM. The value for `Cc1cc(NN=Cc2ccccc2F)c2ccccc2n1` was 920 nM; that for `O=C(Nc1cccc(-c2ccc(-c3nc4ccccc4[nH]3)cc2)c1)Nc1ccc2c(c1)OCO2` was 670 nM; that for `Cc1cc(N2Cc3ccccc3C2)nc(Nc2ccc(S(=O)(=O)N3CCOCC3)cc2)n1` was 1110 nM. The result for `CC[C@H]1CN2CC[C@H]1C[C@@H]2[C@@H](OC(=O)c1ccc(Cl)cc1)c1ccnc2ccc(OC)cc12` reads 920 nM; that for `Cc1ccc(C(=O)NCC2CCN(c3ccc(C(F)(F)F)cc3NC(=O)c3ccco3)CC2)cn1`, 780 nM. The value for `COc1cc(F)c2ncc(Cl)c(CCN3CCC(NCc4ccc5c(c4)OCCO5)CC3)c2c1` was 470 nM; that for `COc1cc(NC(=O)NC(CCN2CCC3(CCc4ccccc43)CC2)c2ccc(Cl)c(Cl)c2)cc(OC)c1OC` (centres undefined) was 680 nM.

Take `CCCCN1CCN(Cc2cccc(NC(=O)c3ccc(Cl)c(Cl)c3)c2)CC1`: the IC50 amounted to 1160 nM. With `CC(C)c1ccc(CN2CCCCC(NC(=O)c3cc(-c4cccc(F)c4)cs3)C2)cc1` (centres undefined), the IC50 was found to be 940 nM.

The values are drawn from PubChem BioAssay AID2305 (GlaxoSmithKline (GSK), 2010).
